From BindingDB's records for doi:10.1016/j.bmc.2017.12.033 (University of Messina, 2018)

How the values were obtained:
[1] = Inhibition of reverse transcriptase L100I mutant in HIV1 infected in human MT4 cells assessed as protection against virus induced cytotoxicity after 5 days by MTT assay
[2] = Inhibition of reverse transcriptase Y181C mutant in HIV1 infected in human MT4 cells assessed as protection against virus induced cytotoxicity after 5 days by MTT assay
[3] = Inhibition of reverse transcriptase E138K mutant in HIV1 infected in human MT4 cells assessed as protection against virus induced cytotoxicity after 5 days by MTT assay
[4] = Inhibition of reverse transcriptase K103N mutant in HIV1 infected in human MT4 cells assessed as protection against virus induced cytotoxicity after 5 days by MTT assay
[5] = Inhibition of reverse transcriptase Y188L mutant in HIV1 infected in human MT4 cells assessed as protection against virus induced cytotoxicity after 5 days by MTT assay
[6] = Inhibition of reverse transcriptase F227L/V106A double mutant in HIV1 infected in human MT4 cells assessed as protection against virus induced cytotoxicity after 5 days by MTT assay
[7] = Inhibition of reverse transcriptase K103N/Y181C double mutant in HIV1 infected in human MT4 cells assessed as protection against virus induced cytotoxicity after 5 days by MTT assay

Row | Structure (SMILES) | EC50 [1] | EC50 [2] | EC50 [3] | EC50 [4] | EC50 [5] | EC50 [6] | EC50 [7]
1 | COC(=O)c1ccc(NC(=O)CSc2nc3ccccc3n2S(=O)(=O)c2cc(C)cc(C)c2)cc1 | 0.17 µM | > 8.36 µM | 0.16 µM | 0.96 µM | > 8.36 µM | > 8.36 µM | > 8.36 µM
2 | Cc1cc(C)cc(S(=O)(=O)n2c(SCC(=O)Nc3ccc(S(N)(=O)=O)cc3)nc3ccccc32)c1 | 0.073 µM | > 27.2 µM | 0.06 µM | 0.67 µM | 1.56 µM | 1.58 µM | > 27.2 µM
3 | Cc1cc(C)cc(S(=O)(=O)n2c(SCC(=O)Nc3ccc(C(=O)O)cc3)nc3ccccc32)c1 | 1.82 µM | 23.6 µM | 1.35 µM | 11.8 µM | > 124 µM | > 124 µM | > 124 µM
4 | Cc1ccc(NC(=O)CSc2nc3ccccc3n2S(=O)(=O)c2cc(C)cc(C)c2)cc1 | 0.24 µM | > 3.13 µM | 0.16 µM | > 3.13 µM | > 3.13 µM | > 3.13 µM | > 3.13 µM
5 | Cc1cc(C)cc(S(=O)(=O)n2c(OCC(=O)Nc3ccc(S(C)(=O)=O)cc3Cl)nc3ccccc32)c1 | 0.29 µM | 0.89 µM | 0.67 µM | > 33.9 µM | > 228 µM | 1.82 µM | –
6 | Cc1cc(C)cc(S(=O)(=O)n2c(SCC(=O)Nc3ccc(S(C)(=O)=O)cc3)nc3ccccc32)c1 | 0.088 µM | > 10.6 µM | 0.15 µM | 1.19 µM | > 10.6 µM | > 0.77 µM | > 10.6 µM
